Key:
C2C12 muscle cells [1] = test: Quantity of mitochondria in cells by fluorescence after MitoTracker Green staining; type: cell-based, mouse; conditions: coumestrol-treated C2C12 muscle cells, FIG. 3
Method: (§1) C2C12 muscle cells derived from mouse (mouse myoblasts, ATCC) were differentiated for a week and then treated with […] coumestrol for 24 hours. Then, the expression of mitochondria-associated genes was confirmed at the protein level by western blotting. The tested genes were PGC1 which induces mitochondria biosynthesis and NDUFA9 and ATP5a which are proteins that constitute the mitochondrial electron transport chain.
Also, the quantity of mitochondria in cells was measured by fluorescence after staining with MitoTracker Green (Invitrogen).

SIRT1 = target: T1, SIRT1 (Homo sapiens, UniProt Q96EB6); test: SIRT1 activity assay kit (Biomol), SIRT1 activating effect; type: biochemical; conditions: FIG. 1
T1 construct: Biomol
T1 sequence (Q96EB6 1-747): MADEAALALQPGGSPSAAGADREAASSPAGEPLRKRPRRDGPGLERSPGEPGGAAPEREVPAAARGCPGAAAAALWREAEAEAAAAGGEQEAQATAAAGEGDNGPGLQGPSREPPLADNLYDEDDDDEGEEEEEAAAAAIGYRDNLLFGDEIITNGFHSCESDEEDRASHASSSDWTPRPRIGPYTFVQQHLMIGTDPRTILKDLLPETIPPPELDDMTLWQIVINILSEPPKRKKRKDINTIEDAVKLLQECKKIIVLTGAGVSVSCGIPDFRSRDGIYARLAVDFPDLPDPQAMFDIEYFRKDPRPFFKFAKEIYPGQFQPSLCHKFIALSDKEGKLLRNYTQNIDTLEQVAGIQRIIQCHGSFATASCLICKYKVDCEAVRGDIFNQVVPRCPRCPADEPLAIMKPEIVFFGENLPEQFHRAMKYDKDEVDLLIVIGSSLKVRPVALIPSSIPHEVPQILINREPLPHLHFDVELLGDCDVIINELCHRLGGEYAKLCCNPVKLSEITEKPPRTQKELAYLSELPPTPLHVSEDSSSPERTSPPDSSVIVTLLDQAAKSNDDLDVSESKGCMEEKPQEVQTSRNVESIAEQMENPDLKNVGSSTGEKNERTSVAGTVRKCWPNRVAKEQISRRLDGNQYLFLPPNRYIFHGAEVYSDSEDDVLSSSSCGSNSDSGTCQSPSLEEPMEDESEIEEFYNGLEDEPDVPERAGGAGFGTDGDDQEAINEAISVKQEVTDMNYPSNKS
Method: It was tested whether coumestrol can activate SIRT1 using the SIRT1 activity assay kit (Biomol). Cells were treated with 10 μM coumestrol. 50 µM resveratrol (Res), which is known to activate SIRT1, was used as positive control and 1 mM nicotinamide (NAM), which is an inhibitor of SIRT1, was used as negative control.

C2C12 muscle cells [2] = test: Expression of mitochondria-associated genes at the protein level by western blotting in differentiated C2C12 muscle cells; type: cell-based, mouse; parameters: dose or concentration left out as unconfirmed; conditions: coumestrol for 24 hours, C2C12 differentiated for a week, FIG. 2
Method: as §1

SIRT1 activating effect compared with resveratrol (positive control) (SIRT1; 10 μM coumestrol vs 50 µM resveratrol): comparable to that of resveratrol
SIRT1 activity relative to the untreated group (SIRT1; 10 μM coumestrol): increased
SMILES: O=c1oc2cc(O)ccc2c2oc3cc(O)ccc3c12 [coumestrol, 3,9-dihydroxy-6H-benzofuro(3,2-c)(1)benzopyran-6-one]
quantity of mitochondria in cells vs untreated group (C2C12 muscle cells [1]): remarkable increase
expression of mitochondria-associated genes (PGC1, NDUFA9, ATP5a) at the protein level vs untreated group (C2C12 muscle cells [2]): remarkable increase
